In paper PMC12400309 (RSC Advances, 2025):

Assays:
[1] = tested on: human oral squamous cell carcinoma (SCC2095); test: MTT cytotoxicity assay, SCC2095; type: cell-based; conditions: read-out: IC50 SCC2095
[2] = tested on: human leukemia MOLT-4 cell line; conditions: cited from earlier work
[3] = tested on: human gastric adenocarcinoma (SCM-1); test: MTT cytotoxicity assay, SCM-1; type: cell-based; conditions: read-out: IC50 SCM-1
[4] = tested on: human breast adenocarcinoma (MCF-7); test: MTT cytotoxicity assay, MCF-7; type: cell-based; conditions: MCF7, read-out: IC50 MCF-7
[5] = tested on: colchicine resistant KB-C2 cell lines; conditions: cited from earlier work

Row | Molecule | IC50 [1] [µM] | IC50 [3] [µM] | other results
1 | COc1cc([C@@H]2c3cc4c(cc3[C@@H](O[C@@H]3O[C@@H]5CO[C@@H](C)O[C@H]5[C@H](O)[C@H]3O)[C@H]3COC(=O)[C@H]23)OCO4)cc(OC)c1O [Etoposide] | 2.5 ± 0.2 | – | –
2 | CC(=O)OC[C@H]1O[C@@H](O[C@@H]2C[C@H]3C(C)(C)[C@H](OC(C)=O)CC[C@]3(C)[C@H]3CC[C@]45C[C@]4(CC[C@H]5[C@@H](C)C[C@@H](O)[C@H](O)C(C)(C)O)[C@@]32C)[C@H](O)[C@@H](O)[C@@H]1O [cumingianoside A] | – | – | ED50 cytotoxicity MOLT-4 [2]: < 6.25 ng/mL
3 | CC[C@H](CC[C@@H](C)[C@H]1CC[C@H]2[C@@H]3[C@H](O)C=C4C[C@@H](O)CC[C@]4(C)[C@H]3CC[C@]12C)C(C)C [Compound 8, (3β,7α)-stigmast-5-ene-3,7-diol] | > 30 | > 30 | IC50 [4]: > 30 µM
4 | dycusin A | – | – | cytotoxicity against multi-drug resistant KB-C2 cancer cells (in words) [5]: enhanced cytotoxicity
5 | COc1cc(C=O)cc(OC)c1O [Compound 14, 4-hydroxy-3,5-dimethoxybenzaldehyde] | > 10 | > 10 | IC50 [4]: > 10 µM
6 | CC(=O)O[C@H]1C(=O)[C@@]2(C)[C@H]([C@H](OC(=O)c3ccccc3)[C@]3(O)C[C@H](OC(=O)[C@H](O)[C@@H](NC(=O)c4ccccc4)c4ccccc4)C(C)=C1C3(C)C)[C@]1(OC(C)=O)CO[C@@H]1C[C@@H]2O [Paclitaxel] | – | 0.07 ± 0.002 | –
7 | COC(C)(C)[C@@H](O)[C@H](O)C[C@H](C)[C@@H]1CC[C@]23C[C@]12CC[C@@H]1[C@@]2(C)CC[C@@H](OC(C)=O)C(C)(C)[C@@H]2C[C@@H](O[C@@H]2O[C@H](COC(C)=O)[C@@H](O)[C@H](O)[C@H]2O)[C@]13C [cumingianoside C] | – | – | ED50 cytotoxicity MOLT-4 [2]: < 4.5 ng/mL
8 | cumingianol B | – | – | cytotoxicity against multi-drug resistant KB-C2 cancer cells (in words) [5]: enhanced cytotoxicity
